Measured values published in patent US7125865B2, “Therapeutic compounds for treating dyslipidemic conditions” (Merck & Co., Inc., priority 2002, dated 2006).

System: Caco-2 cells
Test: apoA-I mediated 3H-cholesterol efflux from Caco-2 cells
Assay type: cell-based, human
Settings: 24 h, 10 μg/ml apoA-I, mean and SEM of quadruplicate
Procedure: To assess the relevant biological activity of the LXR agonists, certain compounds were tested for their ability to increase cholesterol efflux from cultured human cells, as described by Sparrow et al., JBC volume 277, pages 10021–10027, Mar. 22, 2002. Caco-2 cells, which are of human origin, were obtained from ATCC and grown in Opti-MEM (Gibco #51985-034) containing 10% FCS, non-essential amino acids (Gibco #11140-050), and vitamins (Gibco # 11120-052). Caco-2 cells were plated at 100,000 cells/well in 48-well plates. After four days the cells had reached confluence, and were then labeled with ^3H-cholesterol by incubation for 24 hours in fresh growth media containing ^3H-cholesterol (10 μCi/ml). Following labeling with ^3H-cholesterol, cells were washed and incubated an additional 24 hours in serum-free media containing 1 mg/ml BSA, to allow for equilibration of ^3H-cholesterol with intracellular cholesterol. Cholesterol efflux was initiated by adding 10 μg/ml apoA-I, with or without compound, in serum-free medium. Compounds were added to cell culture medium from DMSO solutions, and control cells received an equivalent amount of DMSO, never exceeding 0.1%. After 24 hours, media were harvested and cells dissolved in 0.1 M NaOH. Media were briefly centrifuged to remove non-adherent cells, and then aliquots of both the supernatants and the dissolved cells were subjected to liquid scintillation spectrometry to determine radioactivity. Cholesterol efflux is expressed as a percentage, calculated as (^3H-cholesterol in medium/(^3H-cholesterol in medium+^3H-cholesterol in cells))×100.

SMILES | % cholesterol efflux (compound concentration 1 nM) [%] | % cholesterol efflux (compound concentration 10 nM) [%] | % cholesterol efflux (compound concentration 100 nM) [%] | % cholesterol efflux (compound concentration 1000 nM) [%] | % cholesterol efflux (compound concentration 5000 nM) [%]
CCCc1c(OCCCN2C(=O)NC(C)(c3ccccc3)C2=O)ccc2c(C(F)(F)F)noc12 (racemic) [Example 25, rac-5-methyl-5-phenyl-3-(3-{[7-propyl-3-(trifluoromethyl)-1,2-benzisoxazol-6-yl]oxy}propyl)imidazolidine-2,4-dione] | 3.4 ± 0.3 | 3.5 ± 0.09 | 4.5 ± 0.09 | 4.6 ± 0.09 | 5.2 ± 0.2
CCCc1c(OCCCN2C(=O)CSC2=O)ccc2c(C(F)(F)F)noc12 [Example 16, 3-(3-{[7-propyl-3-(trifluoromethyl)-1,2-benzisoxazol-6-yl]oxy}propyl)thiazolidine-2,4-dione] | 3.2 ± 0.3 | 4.0 ± 0.2 | 8.8 ± 0.7 | 10.3 ± 0.3 | 6.6 ± 0.4
